Patent publication US10961238B2, “Modulators of hedgehog (Hh) signaling pathway” (E-THERAPEUTICS PLC, priority 2016, dated 2021)

System: C3H10T1/2 cells
Assay: C3H assay: differentiation of C3H10T1/2 cells by mSHH, measurement of alkaline phosphatase
Format: cell-based, mouse
Conditions: C3H10T1/2 cells stimulated with mSHH for 72 hours; alkaline phosphatase activity; read-out: IC50 Ranges

IC50 [nM] | Compound
10 to 100 | CC1(C)COCN1C(=O)N1CC(S(=O)(=O)N2CCC(c3coc4cccnc34)CC2)C1 [Compound 372, (4,4-dimethyl-1,3-oxazolidin-3-yl)-[3-(4-furo[3,2-b]pyridin-3-ylpiperidin-1-yl)sulfonylaze-tidin-1-yl]methanone]

Same assay, conditions: Mus musculus, C3H 10T1/2, 72 h, read-out: IC50 Ranges

Compound | IC50 [nM]
O=C(OCCC1CCOCC1)N1CC(S(=O)(=O)N2CCC(c3c[nH]c4ncccc34)CC2)C1 [Compound 60, 2-Tetrahydropyran-4-ylethyl 3-[[4-(1H-pyrrolo[2,3-b]pyridin-3-yl)-1-piperidyl]sulfonyl]azetidine-1-carboxylate] | 10 to 100

Same assay, conditions: Mus musculus, C3H 10T1/2; C3H10T1/2 cells stimulated with mSHH for 72 hours; alkaline phosphatase activity; read-out: IC50 Ranges

IC50 [nM] | Compound
10 to 100 | Cc1cccnc1N1CC(S(=O)(=O)N2CCC(c3c[nH]c4ncccc34)CC2)C1 [Compound 254, 3-[1-[1-(3-methylpyridin-2-yl)azetidin-3-yl]sulfonylpiper-idin-4-yl]-1H-pyrrolo[2,3-b]pyridine]
100 to 1000 | O=S(=O)(C1CN(c2cccnc2)C1)N1CCC(c2c[nH]c3ncccc23)CC1 [Compound 270, 3-[1-(1-pyridin-3-ylazetidin-3-yl)-sulfonylpiper-idin-4-yl]-1H-pyrrolo[2,3-b]pyridine]
100 to 1000 | COC(=O)c1cnc(N2CC(S(=O)(=O)N3CCC(c4c[nH]c5ncccc45)CC3)C2)s1 [Compound 245, methyl 2-[3-[4-(1H-pyrrolo[2,3-b]pyridin-3-yl)piperidin-1-yl]sulfonylaze-tidin-1-yl]-1,3-thiazole-5-carboxylate]
100 to 1000 | CC(C)(C)OC(=O)N1CC(S(=O)(=O)N2CCC(c3ccc(C#N)cc3)CC2)C1 [Compound 303, tert-butyl 3-[4-(4-cyanophenyl)piperidin-1-yl]sulfonylaze-tidine-1-carboxylate]
10 to 100 | O=C(NCc1cccs1)N1CC(S(=O)(=O)N2CCC(c3c[nH]c4ncccc34)CC2)C1 [Compound 85, 3-[4-(1H-pyrrolo[2,3-b]pyridin-3-yl)piperidin-1-yl]sulfonyl-N-(thiophen-2-ylmethyl)azetidine-1-carboxamide]
100 to 1000 | CN(C(=O)N1CCC(S(=O)(=O)N2CCC(c3ccncc3)CC2)C1)C(C)(C)C (racemic) [Compound 271, N-tert-butyl-N-methyl-3-(4-pyridin-4-ylpiperidin-1-yl)sulfonylpyrr olidine-1-carboxamide]
10 to 100 | O=C(CC1CCOCC1)N1CC(S(=O)(=O)N2CCC(c3coc4cccnc34)CC2)C1 [Compound 377, 1-[3-[(4-furo[3,2-b]pyridin-3-yl-1-piperidyl)sulfonyl]azetidin-1-yl]-2-tetrahydropyran-4-yl-ethanone]
100 to 1000 | COc1ccnc(N2CC(S(=O)(=O)N3CCC(c4c[nH]c5ncccc45)CC3)C2)c1C#N [Compound 252, 4-methoxy-2-[3-[4-(1H-pyrrolo [2,3-b]pyridin-3-yl)piperidin-1-yl]sulfonylaze-tidin-1-yl]pyridine-3-carbonitrile]
1000 to 10000 | CC(C)OC(=O)N1CCC(S(=O)(=O)N2CCC(c3ccncc3)CC2)CC1 [Compound 105, propan-2-yl 4-(4-pyridin-4-ylpiperidin-1-yl)sulfonylpiper-idine-1-carboxylate]
1000 to 10000 | CC(C)(C)OC(=O)N1CC(S(=O)(=O)N2CCC(c3cnn4ccncc34)CC2)C1 [Compound 130, tert-butyl 3-(4-pyrazolo[1,5-a]pyrazin-3-ylpiperidin-1-yl)sulfonylaze-tidine-1-carboxylate]
10 to 100 | CC(C)(C)NC(=O)N1CC(S(=O)(=O)N2CCC(c3c[nH]c4ncccc34)CC2)C1 [Compound 108, N-tert-butyl-3-[4-(1H-pyrrolo[2,3-b]pyridin-3-yl)piperidin-1-yl]sulfonylaze-tidine-1-carboxamide]
100 to 1000 | CCN(CC)CCOC(=O)N1CC(S(=O)(=O)N2CCC(c3c[nH]c4ncccc34)CC2)C1 [Compound 52, 2-(diethylamino) ethyl 3-[4-(1H-pyrrolo [2,3-b]pyridin-3-yl)piperidin-1-yl]sulfonylaze-tidine-1-carboxylate]
10 to 100 | CC(C)(C)OC(=O)N1CC(S(=O)(=O)N2CCC(c3csc4cccnc34)CC2)C1 [Compound 17, tert-butyl 3-(4-thieno[3,2-b]pyridin-3-ylpiperidin-1-yl)sulfonylaze-tidine-1-carboxylate]
100 to 1000 | COC(=O)N1CC(S(=O)(=O)N2CCC(c3c[nH]c4ncccc34)CC2)C1 [Compound 151, methyl 3-[4-(1H-pyrrolo [2,3-b]pyridin-3-yl)piperidin-1-yl]sulfonylaze-tidine-1-carboxylate]
10 to 100 | C[C@](O)(CC(=O)N1CC(S(=O)(=O)N2CCC(c3coc4cccnc34)CC2)C1)C(F)(F)F [Compound 406, 4,4,4-trifluoro-1-[3-(4-furo[3,2-b]pyridin-3-ylpiperidin-1-yl)sulfonylaze-tidin-1-yl]-3-hydroxy-3-methylbutan-1-one]
100 to 1000 | CN(C(=O)[C@H]1C[C@H](S(=O)(=O)N2CCC(c3c[nH]c4ncccc34)CC2)C1)C(C)(C)C [Compound 290, trans-N-tert-butyl-N-methyl-3-[[4-(1H-pyrrolo[2,3-b]pyridin-3-yl)-1-piperidyl]sulfonyl]cyclobutanecarboxamide]
1000 to 10000 | CC(C)(C)c1ccc(C(=O)N2CC(S(=O)(=O)N3CCC(c4c[nH]c5ncccc45)CC3)C2)cc1 [Compound 74, (4-tert-butylphenyl)-[3-[4-(1H-pyrrolo[2,3-b]pyridin-3-yl)piperidin-1-yl]sulfonylaze-tidin-1-yl]methanone]
100 to 1000 | CC(C)[C@H](CO)NC(=O)N1CC(S(=O)(=O)N2CCC(c3ccc(F)cc3)CC2)C1 (racemic) [Compound 344, 3-[4-(4-fluorophenyl)piperidin-1-yl]sulfonyl-N-[1-hydroxy-3-methylbutan-2-yl] azetidine-1-carboxamide]
10 to 100 | O=C(Nc1c(F)cccc1F)N1CC(S(=O)(=O)N2CCC(c3coc4cccnc34)CC2)C1 [Compound 403, N-(2,6-difluorophenyl)-3-(4-furo[3,2-b]pyridin-3-ylpiperidin-1-yl)sulfonylaze-tidine-1-carboxamide]
100 to 1000 | CC(C)(C)OC(=O)N1CC(S(=O)(=O)N2CCC(C3COc4cccnc43)CC2)C1 (centres unmarked) [Compound 127, tert-butyl 3-[4-(2,3-dihydrofuro[3,2-b]pyridin-3-yl)piperidin-1-yl]sulfonylaze-tidine-1-carboxylate]
1000 to 10000 | CC(C)(C)OC(=O)N1CCC(S(=O)(=O)N2CC=C(c3c[nH]c4ncncc34)CC2)CC1 [Compound 233, tert-butyl 4-[[4-(7H-pyrrolo[2,3-d]pyrimidin-5-yl)-3,6-dihydro-2H-pyridin-1-yl]sulfonyl] piperidine-1-carboxylate]
10 to 100 | O=C(OC1CCOCC1)N1CC(S(=O)(=O)N2CCC(c3coc4cccnc34)CC2)C1 [Compound 136, oxan-4-yl 3-(4-furo[3,2-b]pyridin-3-ylpiperidin-1-yl)sulfonylaze-tidine-1-carboxylate]
1000 to 10000 | Cc1noc(C)c1CN1CC(S(=O)(=O)N2CCC(c3c[nH]c4ncccc34)CC2)C1 [Compound 61, 3,5-dimethyl-4-[[3-[4-(1H-pyrrolo [2,3-b]pyridin-3-yl)piperidin-1-yl]sulfonylaze-tidin-1-yl]methyl]-1,2-oxazole]
10 to 100 | O=S(=O)(C1CN(c2nc3ccccc3s2)C1)N1CCC(c2c[nH]c3ncccc23)CC1 [Compound 312, 2-[3-[4-(1H-pyrrolo[2,3-b]pyridin-3-yl)piperidin-1-yl]sulfonylaze-tidin-1-yl]-1,3-benzothiazole]
< 10 | Cc1ccc2c(C3CCN(S(=O)(=O)C4CN(C(=O)N5C[C@@H](C)O[C@@H](C)C5)C4)CC3)c[nH]c2n1 [Compound 381, [cis-2,6-dimethylmorpholin-4-yl]-[3-[4-(6-methyl-1H-pyrrolo[2,3-b]pyridin-3-yl)piperidin-1-yl]sulfonylazetidin-1-yl]methanone]
1000 to 10000 | CC(C)(C)OC(=O)N1CC(S(=O)(=O)N2CCC(c3c[nH]c4ncc(C(F)(F)F)cc34)CC2)C1 [Compound 121, tert-butyl 3-[4-[5-(trifluoromethyl)-1H-pyrrolo[2,3-b]pyridin-3-yl]piperidin-1-yl]sulfonylaze-tidine-1-carboxylate]
1000 to 10000 | CC(C)(C)OC(=O)N1CCC(S(=O)(=O)N2CCC(C3CCOCC3)CC2)CC1 [Compound 20, tert-butyl 4-[4-(oxan-4-yl)piperidin-1-yl]sulfonylpiper-idine-1-carboxylate]
100 to 1000 | O=C(NCc1cncs1)N1CC(S(=O)(=O)N2CCC(c3c[nH]c4ncccc34)CC2)C1 [Compound 80, 3-[4-(1H-pyrrolo[2,3-b]pyridin-3-yl)piperidin-1-yl]sulfonyl-N-(1,3-thiazol-5-ylmethyl)azetidine-1-carboxamide]
1000 to 10000 | Cc1cnc2[nH]cc(C3CCN(S(=O)(=O)C4CN(C(=O)OC(C)(C)C)C4)CC3)c2c1 [Compound 2, tert-butyl 3-[4-(5-methyl-1H-pyrrolo[2,3-b]pyridin-3-yl)piperidin-1-yl] sulfonylaze-tidine-1-carboxylate]
< 10 | COCC(C)(C)OC(=O)N1CC(S(=O)(=O)N2CCC(c3c[nH]c4ncccc34)CC2)C1 [Compound 152, (1-methoxy-2-methylpropan-2-yl) 3-[4-(1H-pyrrolo[2,3-b]pyridin-3-yl)piperidin-1-yl]sulfonylaze-tidine-1-carboxylate]

Compound | IC50 [nM]
O=S(=O)(C1CN(c2ccccn2)C1)N1CCC(c2c[nH]c3ncccc23)CC1 [Compound 118, 3-[1-[1-(2-Pyridyl)azetidin-3-yl]sulfonyl-4-piperidyl]-1H-pyrrolo[2,3-b]pyridine] | 10 to 100
O=C(OC1CCCCC1)N1CC(S(=O)(=O)N2CCC(c3coc4cccnc34)CC2)C1 [Compound 141, Cyclohexyl 3-[(4-furo[3,2-b]pyridin-3-yl-1-piperidyl)sulfonyl]azetidine-1-carboxylate] | 10 to 100

Same assay, conditions: Mus musculus, C3H 10T1/2; reference compounds run in the C3H assay; read-out: mean IC50

IC50 [nM] | Compound
11 | Cc1c(C(=O)Nc2ccc(N3C[C@@H](C)O[C@@H](C)C3)nc2)cccc1-c1ccc(OC(F)(F)F)cc1 [Sonidegib, reference compound]
